pEC50: −log10 of the molar value.

This experiment concerns HCV replicon. Nature of the experiment: Replicon based assay of HCV replication inhibition (NPT ELISA). As to conditions: Hepatitis C virus, replicon based assay of HCV replication inhibition; Table IV; read-out: Activity. It is filed as cell-based, Hepatitis C virus. In short, it runs like this: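 Huh-7 cells carrying a bicistronic HCV replicon (neo, EMCV-IRES-driven NS3–NS5B) treated overnight after seeding with usually 6 concentrations, 10 to 0.03 micromolar, for three days at 37° C without G418. Replication read as NPT level by captured ELISA; matched-DMSO wells and interferon alpha as controls.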
Turning to `COc1ncc(-c2csc(Nc3ccc4ccn(Cc5ccc(F)cc5)c4c3)n2)cn1` [compound 866, 1-(4-fluorobenzyl)-N-(4-(2-methoxypyrimidin-5-yl)thiazol-2-yl)-1H-indol-6-amine], the pEC50 is more than 6.00.

Turning to `Fc1ccc(Cn2ccc3ccc(Nc4nc(-c5cccnc5)cs4)cc32)cc1` [compound 867, 1-(4-fluorobenzyl)-N-(4-(pyridin-3-yl)thiazol-2-yl)-1H-indol-6-amine], the pEC50 was more than 6.00.

For the compound `Fc1ccc(Cn2ccc3ccc(Nc4nc(-c5ccc(F)cc5)cs4)cc32)cc1` [compound 868, 1-(4-fluorobenzyl)-N-(4-(4-fluorophenyl)thiazol-2-yl)-1H-indol-6-amine], the pEC50 is more than 6.00.

With `CCCCCCCCNc1ccc(-c2nc(-c3csc(Nc4cccnc4)n3)cs2)cc1C(F)(F)F` [compound 869, N-(4-(2-(3-(trifluoromethyl)-4-(octylamino)phenyl)thiazol-4-yl)thiazol-2-yl)pyridin-3-amine], the pEC50 was more than 6.00.

Consider `Fc1ccc(Cn2ccc3cc(Nc4nc(-c5cccnc5)cs4)ccc32)cc1` [compound 870], for which the pEC50 is more than 6.00.

Turning to `Fc1ccc(Cn2ccc3cc(Nc4nc(-c5ccc(F)cc5)cs4)ccc32)cc1` [compound 871, 1-(4-fluorobenzyl)-N-(4-(4-fluorophenyl)thiazol-2-yl)-1H-indol-5-amine], the pEC50 was less than 5.00.

For the compound `CCC(C)c1ccc(Nc2nc(-c3cccnc3)cs2)cc1` (stereo not shown) [compound 872, N-(4-sec-butylphenyl)-4-(pyridin-3-yl)thiazol-2-amine], the pEC50 was 5.00 to 6.00.

Take `NC(=O)c1ccc(Nc2nc(-c3cccnc3)cs2)cc1` [compound 873, 4-(4-(pyridin-3-yl)thiazol-2-ylamino)benzamide]: the pEC50 was less than 5.00.

In the case of `FC(F)(F)c1cc(Nc2nc(-c3cccnc3)cs2)cc(C(F)(F)F)c1` [compound 874, N-(3,5-bis(trifluoromethyl)phenyl)-4-(pyridin-3-yl)thiazol-2-amine], the pEC50 was 5.00 to 6.00.

For the compound `Fc1ccc(Nc2nc(-c3cccnc3)cs2)cc1C(F)(F)F` [compound 875, N-(4-fluoro-3-(trifluoromethyl)phenyl)-4-(pyridin-3-yl)thiazol-2-amine], the pEC50 is 5.00 to 6.00.

Take `NC(=O)c1cccc(Nc2nc(-c3cccnc3)cs2)c1` [compound 876, 3-(4-(pyridin-3-yl)thiazol-2-ylamino)benzamide]: the pEC50 is less than 5.00.

As for `Cc1cc(OC(F)(F)F)ccc1Nc1nc(-c2cccnc2)cs1` [compound 877, N-(2-methyl-4-(trifluoromethoxy)phenyl)-4-(pyridin-3-yl)thiazol-2-amine], the pEC50 was less than 5.00.

With `CC(=O)Nc1ccc(Nc2nc(-c3cccnc3)cs2)cc1` [compound 878, N-(4-(4-(pyridin-3-yl)thiazol-2-ylamino)phenyl)acetamide], the pEC50 is less than 5.00.

`Cc1ccc(Nc2nc(-c3cccnc3)cs2)cc1C(F)(F)F` [compound 879, N-(3-(trifluoromethyl)-4-methylphenyl)-4-(pyridin-3-yl)thiazol-2-amine]: the pEC50 is more than 6.00.

In the case of `N#Cc1ccc(Nc2nc(-c3cccnc3)cs2)cc1` [compound 880, 4-(4-(pyridin-3-yl)thiazol-2-ylamino)benzonitrile], the pEC50 is 5.00 to 6.00.

As to `FC(F)(F)c1cc(Nc2nc(-c3cccnc3)cs2)ccc1Cl` [compound 881, N-(4-chloro-3-(trifluoromethyl)phenyl)-4-(pyridin-3-yl)thiazol-2-amine], the pEC50 is more than 6.00.

As for `N#Cc1ccc(Nc2nc(-c3cccnc3)cs2)cc1C(F)(F)F` [compound 882, 4-(4-(pyridin-3-yl)thiazol-2-ylamino)-2-(trifluoromethyl)benzonitrile], the pEC50 was less than 5.00.

For the compound `Cc1cc(C)c(Nc2nc(-c3cccnc3)cs2)c(C)c1` [compound 883, N-mesityl-4-(pyridin-3-yl)thiazol-2-amine], the pEC50 was less than 5.00.

Turning to `Cc1ccc(Nc2nc(-c3cccnc3)cs2)cc1` [compound 884, 4-(pyridin-3-yl)-N-p-tolylthiazol-2-amine], the pEC50 was less than 5.00.

As to `FC(F)(F)Oc1ccc(Nc2nc(-c3cccnc3)cs2)cc1` [compound 885, 4-(pyridin-3-yl)-N-(4-(trifluoromethoxy)phenyl)thiazol-2-amine], the pEC50 is 5.00 to 6.00.

Turning to `COc1ccc(Nc2nc(-c3cccnc3)cs2)cc1` [compound 886, N-(4-methoxyphenyl)-4-(pyridin-3-yl)thiazol-2-amine], the pEC50 was less than 5.00.

For the compound `CC(C)c1ccc(Nc2nc(-c3cccnc3)cs2)cc1` [compound 887, N-(4-isopropylphenyl)-4-(pyridin-3-yl)thiazol-2-amine], the pEC50 was 5.00 to 6.00.

For `Fc1ccc(C(F)(F)F)cc1Nc1nc(-c2cccnc2)cs1` [compound 888, N-(2-fluoro-5-(trifluoromethyl)phenyl)-4-(pyridin-3-yl)thiazol-2-amine], the pEC50 is 5.00 to 6.00.

For `Fc1ccc(Nc2nc(-c3cccnc3)cs2)c(F)c1F` [compound 889, N-(2,3,4-trifluorophenyl)-4-(pyridin-3-yl)thiazol-2-amine], the pEC50 was less than 5.00.

In the case of `Fc1c(Nc2nc(-c3cccnc3)cs2)cccc1C(F)(F)F` [compound 890, N-(2-fluoro-3-(trifluoromethyl)phenyl)-4-(pyridin-3-yl)thiazol-2-amine], the pEC50 was 5.00 to 6.00.

For the compound `FC(F)(F)c1ccc(Nc2nc(-c3cccnc3)cs2)cc1` [compound 891, N-(4-(trifluoromethyl)phenyl)-4-(pyridin-3-yl)thiazol-2-amine], the pEC50 was 5.00 to 6.00.

On to `CC(C)(C)c1ccc(Nc2nc(-c3cccnc3)cs2)cc1` [compound 892, N-(4-tert-butylphenyl)-4-(pyridin-3-yl)thiazol-2-amine], for which the pEC50 was 5.00 to 6.00.

`CC(C)(C)c1cccc(Nc2nc(-c3cccnc3)cs2)c1` [compound 893, N-(3-tert-butylphenyl)-4-(pyridin-3-yl)thiazol-2-amine]: the pEC50 was less than 5.00.

Consider `CC(C)(C)c1cc(Nc2nc(-c3cccnc3)cs2)cc(C(C)(C)C)c1` [compound 894, N-(3,5-di-tert-butylphenyl)-4-(pyridin-3-yl)thiazol-2-amine], for which the pEC50 was more than 6.00.

In the case of `CC(C)(C)OC(=O)Nc1ccc(Nc2nc(-c3cccnc3)cs2)cc1` [compound 895, tert-butyl 4-(4-(pyridin-3-yl)thiazol-2-ylamino)phenylcarbamate], the pEC50 was less than 5.00.

For `Clc1ccc(Oc2ccc(Nc3nc(-c4cccnc4)cs3)cc2)cc1` [compound 896, N-(4-(4-chlorophenoxy)phenyl)-4-(pyridin-3-yl)thiazol-2-amine], the pEC50 is more than 6.00.

For the compound `Cc1ccc(Oc2ccc(Nc3nc(-c4cccnc4)cs3)cc2)cc1` [compound 897, N-(4-(p-tolyloxy)phenyl)-4-(pyridin-3-yl)thiazol-2-amine], the pEC50 was more than 6.00.

As for `Cc1c(C)c(C)c(C(=O)CCc2cccc(Nc3nc(-c4cccnc4)cs3)c2)c(C)c1C` [compound 898, 3-(3-(4-(pyridin-3-yl)thiazol-2-ylamino)phenyl)-1-(2,3,4,5,6-pentamethylphenyl)propan-1-one], the pEC50 was more than 6.00.

Take `Cc1c(Nc2nc(-c3cccnc3)cs2)cccc1C(F)(F)F` [compound 899, N-(3-(trifluoromethyl)-2-methylphenyl)-4-(pyridin-3-yl)thiazol-2-amine]: the pEC50 was 5.00 to 6.00.

The values are drawn from US8088806B2 (Achillion Pharmaceuticals, Inc., priority 2005, dated 2012).
